Assay results published in US11000033B2, “Ketone or oxime compound, and herbicide” (NISSAN CHEMICAL CORPORATION, priority 2014, dated 2021).

What was measured:
Format in all cases: in vivo
Avena fatua = assay: Test Example 5: herbicidal effect by foliage application, plastic box (symbol I); details: 320 g/ha, 3 weeks after application
In short: (§1)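 Greenhouse foliar test: seedlings at 14 days, grown 25° C. to 30° C. in sterilized diluvial soil; compound applied as an aqueous dilution of an emulsion; response read 3 weeks after spraying.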

Digitaria ciliaris = assay: Test Example 5: herbicidal effect by foliage application, plastic box (symbol F); details: 320 g/ha, 3 weeks after application
In short: as §1

Apera spica-venti [1] = assay: Test Example 5: herbicidal effect by foliage application, plastic box (symbol L); details: 320 g/ha, 3 weeks after application
In short: as §1

Stellaria media [2] = assay: Test Example 5: herbicidal effect by foliage application, plastic box (symbol P); details: 320 g/ha, 3 weeks after application
In short: as §1

Stellaria media [3] = assay: Test Example 4: herbicidal effect by soil treatment (symbol P); details: for P (Stellaria media) herbicidal effect grade: application herbicide amount 320 g/ha
In short: (§2)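 Seeds were sown in sterilized diluvial soil, covered with about 1.5 cm of soil, and the soil surface was sprayed with a water-diluted emulsion of the compound at a predetermined rate. Plants grew in a greenhouse at 25° C. to 30° C.; effects were scored visually 3 weeks after application.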

Chenopodium album = assay: Test Example 5: herbicidal effect by foliage application, plastic box (symbol O); details: 320 g/ha, 3 weeks after application
In short: as §1

soybean = assay: Test Example 4: effect on crop by soil treatment (symbol d); details: for d (soybean) effect on crop grade: application herbicide amount 320 g/ha
In short: (§3)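 Crop seed is sown in spots together with several weed species in a box of sterilized diluvial soil. It is covered by about 1.5 cm of soil and kept in a greenhouse held between 25° C. and 30° C.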

wheat = assay: Test Example 4: effect on crop by soil treatment (symbol e); details: for e (wheat) effect on crop grade: application herbicide amount 320 g/ha
In short: as §3

[4] = tested on: Echinochloa crus-galli var. crus-galli; assay: Test Example 3: herbicidal effect by foliage application, Wagner pot (symbol H); details: application herbicide amount 320 g/ha
In short: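 Plants sown in submerged alluvial soil (water depth 0.1–0.5 cm) in a 25–30 °C greenhouse and grown 14 days. An emulsion of the compound diluted in water to a set herbicide amount was sprayed uniformly on foliage. Effect on each plant scored 3 weeks after application.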

Setaria viridis = assay: Test Example 4: herbicidal effect by soil treatment (symbol G); details: for G (Setaria viridis) herbicidal effect grade: application herbicide amount 320 g/ha
In short: as §2

Apera spica-venti [5] = assay: Test Example 4: herbicidal effect by soil treatment (symbol L); details: for L (Apera spica-venti) herbicidal effect grade: application herbicide amount 320 g/ha
In short: as §2

Alopecurus myosuroides = assay: Test Example 5: herbicidal effect by foliage application, plastic box (symbol J); details: 320 g/ha, 3 weeks after application
In short: as §1

rapeseed = assay: Test Example 4: effect on crop by soil treatment (symbol g); details: for g (rapeseed) effect on crop grade: application herbicide amount 320 g/ha
In short: as §3

rice plant = assay: Test Example 5: effect on crop by foliage application, plastic box (symbol b); details: 320 g/ha, 3 weeks after application
In short: (§4)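 Crop and weed seeds sown in spots in sterilized diluvial soil in plastic boxes and covered with about 1.5 cm soil. Plants raised in a greenhouse at 25° C. to 30° C. for foliar application.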

[6] = tested on: directly sowed rice plant; assay: Test Example 3: effect on crop by foliage application, Wagner pot (symbol b); details: application herbicide amount 320 g/ha
In short: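 Alluvial soil in a 1/10000-are Wagner pot was flooded to a water depth of 0.1–0.5 cm. Echinochloa crus-galli var. crus-galli, Leptochloa chinensis, Cyperus difformis and rice were sown into it and grown in a greenhouse at 25–30 °C.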

Lolium multiflorum Lam. = assay: Test Example 5: herbicidal effect by foliage application, plastic box (symbol K); details: 320 g/ha, 3 weeks after application
In short: as §1

corn = assay: Test Example 5: effect on crop by foliage application, plastic box (symbol c); details: 320 g/ha, 3 weeks after application
In short: as §4

| Structure (SMILES) | I: Avena fatua, herbicidal effect grade (Avena fatua) | F: Digitaria ciliaris, herbicidal effect grade (Digitaria ciliaris) | L: Apera spica-venti, herbicidal effect grade (Apera spica-venti [1]) | P: Stellaria media, herbicidal effect grade (Stellaria media [2]) | P (Stellaria media) herbicidal effect grade (Stellaria media [3]) | O: Chenopodium album, herbicidal effect grade (Chenopodium album) | d (soybean) effect on crop grade (soybean) | e (wheat) effect on crop grade (wheat) | herbicidal effect on H (Echinochloa crus-galli var. crus-galli), grade 0-5 [4] | G (Setaria viridis) herbicidal effect grade (Setaria viridis) | L (Apera spica-venti) herbicidal effect grade (Apera spica-venti [5]) | J: Alopecurus myosuroides, herbicidal effect grade (Alopecurus myosuroides) | g (rapeseed) effect on crop grade (rapeseed) | b: directly sowed rice plant, effect on crop grade (rice plant) | effect on crop b (directly sowed rice plant), grade 0-5 [6] | K: Lolium multiflorum Lam., herbicidal effect grade (Lolium multiflorum Lam.) | c: corn, effect on crop grade (corn) | also measured |
| --- | --- | --- | --- | --- | --- | --- | --- | --- | --- | --- | --- | --- | --- | --- | --- | --- | --- | --- |
| CC(CC1CC(O)=C(c2c(C)cc(C)cc2C)C1=O)=NOCC=CCl (stereo not shown) [1-056] | 5 (Herbicidal ratio of 90% or more (almost completely withered)) | 5 (Herbicidal ratio of 90% or more (almost completely withered)) | 5 (Herbicidal ratio of 90% or more (almost completely withered)) | 0 (Herbicidal ratio of 5% or lower (almost no effect)) | 0 (Herbicidal ratio of 5% or lower (almost no effect)) | 1 (Herbicidal ratio of 5% or higher and lower than 20%) | 0 (Herbicidal ratio of 5% or lower (almost no effect)) | 5 (Herbicidal ratio of 90% or more (almost completely withered)) | 5 (Herbicidal ratio of 90% or more (almost completely withered)) | 5 (Herbicidal ratio of 90% or more (almost completely withered)) | 5 (Herbicidal ratio of 90% or more (almost completely withered)) | 5 (Herbicidal ratio of 90% or more (almost completely withered)) | 4 (Herbicidal ratio of 70% or higher and lower than 90%) | 5 (Herbicidal ratio of 90% or more (almost completely withered)) | 5 (Herbicidal ratio of 90% or more (almost completely withered)) | 5 (Herbicidal ratio of 90% or more (almost completely withered)) | 4 (Herbicidal ratio of 70% or higher and lower than 90%) | – |
| CON=C(C)CC1CC(OC(=O)C(C)Oc2ccc(Oc3cnc4cc(Cl)ccc4n3)cc2)=C(c2c(C)cc(C)cc2C)C1=O (stereo not shown) [1-087] | – | – | – | – | – | – | – | – | 5 (Herbicidal ratio of 90% or more (almost completely withered)) | – | – | – | – | – | 5 (Herbicidal ratio of 90% or more (almost completely withered)) | – | – | I: Avena fatua, herbicidal effect (criteria 0-5) (Avena fatua): 5 (Herbicidal ratio of 90% or more (almost completely withered)); F: Digitaria ciliaris, herbicidal effect (criteria 0-5) (Digitaria ciliaris): 5 (Herbicidal ratio of 90% or more (almost completely withered)); L: Apera spica-venti, herbicidal effect (criteria 0-5) (Apera spica-venti [1]): 5 (Herbicidal ratio of 90% or more (almost completely withered)); P: Stellaria media, herbicidal effect (criteria 0-5) (Stellaria media [2]): 3 (Herbicidal ratio of 40% or higher and lower than 70%); P: Stellaria media, herbicidal effect grade (Stellaria media [3]; 320 g/ha): 0 (Herbicidal ratio of 5% or lower (almost no effect)); O: Chenopodium album, herbicidal effect (criteria 0-5) (Chenopodium album): 0 (Herbicidal ratio of 5% or lower (almost no effect)); d: soybean, effect grade on crop (soybean; 320 g/ha): 2 (Herbicidal ratio of 20% or higher and lower than 40%); e: wheat, effect grade on crop (wheat; 320 g/ha): 5 (Herbicidal ratio of 90% or more (almost completely withered)); G: Setaria viridis, herbicidal effect grade (Setaria viridis; 320 g/ha): 5 (Herbicidal ratio of 90% or more (almost completely withered)); L: Apera spica-venti, herbicidal effect grade (Apera spica-venti [5]; 320 g/ha): 5 (Herbicidal ratio of 90% or more (almost completely withered)); J: Alopecurus myosuroides, herbicidal effect (criteria 0-5) (Alopecurus myosuroides): 5 (Herbicidal ratio of 90% or more (almost completely withered)); g: rapeseed, effect grade on crop (rapeseed; 320 g/ha): 5 (Herbicidal ratio of 90% or more (almost completely withered)); b: directly sowed rice plant, effect on crop (criteria 0-5) (rice plant): 5 (Herbicidal ratio of 90% or more (almost completely withered)); K: Lolium multiflorum Lam., herbicidal effect (criteria 0-5) (Lolium multiflorum Lam.): 5 (Herbicidal ratio of 90% or more (almost completely withered)); c: corn, effect on crop (criteria 0-5) (corn): 5 (Herbicidal ratio of 90% or more (almost completely withered)) |
| CON=C(C)CC1CC(OC(=O)C(C)(C)Oc2cccc(Cl)c2)=C(c2c(C)cc(C)cc2C)C1=O (stereo not shown) [1-065] | 5 (Herbicidal ratio of 90% or more (almost completely withered)) | 5 (Herbicidal ratio of 90% or more (almost completely withered)) | 5 (Herbicidal ratio of 90% or more (almost completely withered)) | 0 (Herbicidal ratio of 5% or lower (almost no effect)) | 0 (Herbicidal ratio of 5% or lower (almost no effect)) | 2 (Herbicidal ratio of 20% or higher and lower than 40%) | 0 (Herbicidal ratio of 5% or lower (almost no effect)) | 4 (Herbicidal ratio of 70% or higher and lower than 90%) | 5 (Herbicidal ratio of 90% or more (almost completely withered)) | 5 (Herbicidal ratio of 90% or more (almost completely withered)) | 5 (Herbicidal ratio of 90% or more (almost completely withered)) | 5 (Herbicidal ratio of 90% or more (almost completely withered)) | 4 (Herbicidal ratio of 70% or higher and lower than 90%) | 5 (Herbicidal ratio of 90% or more (almost completely withered)) | 5 (Herbicidal ratio of 90% or more (almost completely withered)) | 5 (Herbicidal ratio of 90% or more (almost completely withered)) | 5 (Herbicidal ratio of 90% or more (almost completely withered)) | – |
| CCCC(CC1CC(O)=C(c2c(C)cc(C)cc2C)C1=O)=NOC (stereo not shown) [1-062] | 4 (Herbicidal ratio of 70% or higher and lower than 90%) | 1 (Herbicidal ratio of 5% or higher and lower than 20%) | 5 (Herbicidal ratio of 90% or more (almost completely withered)) | 0 (Herbicidal ratio of 5% or lower (almost no effect)) | 0 (Herbicidal ratio of 5% or lower (almost no effect)) | 0 (Herbicidal ratio of 5% or lower (almost no effect)) | 0 (Herbicidal ratio of 5% or lower (almost no effect)) | 0 (Herbicidal ratio of 5% or lower (almost no effect)) | 4 (Herbicidal ratio of 70% or higher and lower than 90%) | 5 (Herbicidal ratio of 90% or more (almost completely withered)) | 4 (Herbicidal ratio of 70% or higher and lower than 90%) | 5 (Herbicidal ratio of 90% or more (almost completely withered)) | 3 (Herbicidal ratio of 40% or higher and lower than 70%) | 5 (Herbicidal ratio of 90% or more (almost completely withered)) | 5 (Herbicidal ratio of 90% or more (almost completely withered)) | 5 (Herbicidal ratio of 90% or more (almost completely withered)) | 4 (Herbicidal ratio of 70% or higher and lower than 90%) | – |
| CON=C(CC1CC1)CC1CC(O)=C(c2c(C)cc(C)cc2C)C1=O (stereo not shown) [1-070] | 5 (Herbicidal ratio of 90% or more (almost completely withered)) | 1 (Herbicidal ratio of 5% or higher and lower than 20%) | 4 (Herbicidal ratio of 70% or higher and lower than 90%) | 0 (Herbicidal ratio of 5% or lower (almost no effect)) | 0 (Herbicidal ratio of 5% or lower (almost no effect)) | 1 (Herbicidal ratio of 5% or higher and lower than 20%) | 0 (Herbicidal ratio of 5% or lower (almost no effect)) | 0 (Herbicidal ratio of 5% or lower (almost no effect)) | 5 (Herbicidal ratio of 90% or more (almost completely withered)) | 4 (Herbicidal ratio of 70% or higher and lower than 90%) | 5 (Herbicidal ratio of 90% or more (almost completely withered)) | 5 (Herbicidal ratio of 90% or more (almost completely withered)) | 0 (Herbicidal ratio of 5% or lower (almost no effect)) | 5 (Herbicidal ratio of 90% or more (almost completely withered)) | 5 (Herbicidal ratio of 90% or more (almost completely withered)) | 5 (Herbicidal ratio of 90% or more (almost completely withered)) | 4 (Herbicidal ratio of 70% or higher and lower than 90%) | – |
